What is called logP is a log measure of how a compound divides between an organic and an aqueous phase. Low values mean lower lipophilicity, high ones higher lipophilicity.

The test system of series [1] is Caenorhabditis elegans. As to the kind of experiment: Antiapoptotic activity against Caenorhabditis elegans ced-3(n2438) mutant assessed as number of extra cells in anterior pharynx at 50 to 250 mM dissolved in soybean oil. The format is functional, organism-based.
In series [2] the test system is Caenorhabditis elegans. As to the kind of experiment: Antiapoptotic activity against Caenorhabditis elegans ced-3(n2447) S446L mutant assessed as number of extra cells in anterior pharynx L3 and L4 larvae at 250 mM dissolved in soybean oil. The class given is functional, organism-based.
Series [3] deals with Caenorhabditis elegans. As to the kind of experiment: Antiapoptotic activity against Caenorhabditis elegans ced-3(n2438) G474R mutant assessed as number of extra cells in anterior pharynx L3 and L4 larvae at 250 mM dissolved in soybean oil. The format is functional, organism-based.
Series [4] is described as follows: Octanol-water partition coefficient, log P of the compound. The format is physicochemical.
Series [5] relates to Caenorhabditis elegans. As to the kind of experiment: Antiapoptotic activity against Caenorhabditis elegans ced-4(n2273) mutant assessed as number of extra cells in anterior pharynx L3 and L4 larvae at 250 mM dissolved in soybean oil. The format is functional, organism-based.
The subject of series [6] is Caenorhabditis elegans. As to the kind of experiment: Antiapoptotic activity against Caenorhabditis elegans ced-8(n1891) mutant assessed as number of extra cells in anterior pharynx L3 and L4 larvae at 250 mM dissolved in soybean oil. The format is functional, organism-based.
For series [7], the system named is Caenorhabditis elegans. As to the kind of experiment: Antiapoptotic activity against Caenorhabditis elegans ced-3(n2433) mutant assessed as number of extra cells in anterior pharynx L3 and L4 larvae at 250 mM dissolved in soybean oil. The class given is functional, organism-based.
The test system of series [8] is Caenorhabditis elegans. As to the kind of experiment: Antiapoptotic activity against Caenorhabditis elegans ced-3(n2436) mutant assessed as number of extra cells in anterior pharynx L3 and L4 larvae at 250 mM dissolved in soybean oil. The class given is functional, organism-based.
Series [9] concerns Caenorhabditis elegans. As to the kind of experiment: Antiapoptotic activity against Caenorhabditis elegans ced-9(n1950) mutant assessed as number of extra cells in anterior pharynx L3 and L4 larvae at 250 mM dissolved in soybean oil. The class given is functional, organism-based.

Active and inactive are the calls of the source. No cut-off for these calls is given here.

For the molecule `CCCCC(CC)COC(=O)c1ccccc1C(=O)OCC(CC)CCCC` (centres undefined), in series [1], the outcome was inactive.

With `Clc1ccc(Cl)cc1` [1,4-DICHLOROBENZENE], the outcome in series [2], in [3], in series [5], in [6], in [7] and in series [8] was Active. Also, the outcome in [9] was Active. For the same molecule, the logP in series [4] stood at 3.5.

The values above are taken from ChEMBL document CHEMBL1240309 (Nat Chem Biol, 2006).
